Laboratory results published in patent US5710244A, “Derivatized calcitonins” (priority 1993, dated 1998).

Tests used:
[1] = tested on: endogenous hamster calcitonin receptor; assay: CRE-linked luciferase (cyclic AMP) induction in BHK cells expressing endogenous hamster calcitonin receptor; assay type: cell-based; settings: EC50 as % of salmon calcitonin (SCT) EC50; CRE-luciferase, BHK cells, 4 h induction
Procedure: A BHK cell line expressing the endogenous hamster calcitonin receptor was transfected with plasmid KZ10-20-48 to provide the CRE-inducible luciferase receptor described above. The transfected cells were cultured in selective growth medium containing both 500 μg/mL G418-neomycin and 250 nM methotrexate.
Cells expressing the calcitonin receptor were assayed in triplicate for the induction of the CRE-linked luciferase response to salmon calcitonin (SCT) and derivatized calcitonins at concentrations ranging from 10^-13 M to 10^-6 M. MICROLITE flat bottom tissue culture plates (Baxter Scientific Products, Chicago, Ill.) were set up such that each well contained 2×10^4 cells in 100 μl of selection media, and the cells were grown overnight. SCT and GF43 were prepared at 2X the final assay concentration to give 10^-13 to 10^-6 M in growth medium. Induction was initiated by removing old medium from the wells and adding 100 μl of fresh growth medium and 100 μl of either 2X solution in triplicate sample wells. Uninduced luciferase levels were determined in triplicate wells to which 100 μl of DMEM containing 10% fetal calf serum was added. The plates were incubated for four hours at 37° C., 5% CO2 to allow induction of luciferase. Following induction, the media were removed, and the wells were washed once with 200 μl/well PBS. After the wash, 20 μl of a 1:5 dilution (in sterile water) of the stock Cell Culture Lysis Reagent (Luciferase Assay System, Promega Corp., Madison, Wis.) was added to each well, and the plates were incubated for 15 minutes at room temperature. The plates were transferred to a Labsystems Luminoskan microtiter luminometer (Labsystems Inc., Morton Grove, Ill.) which added 40 μl of Luciferase Assay Substrate (Luciferase Assay System, Promega), mixed the reaction for three seconds and integrated the luciferase signal for two seconds per well. The fold induction of luciferase for each compound was calculated as follows:
Fold induction=Induced signal-Uninduced signal Uninduced signal

serum calcium in mice = assay: In vivo effect on serum calcium levels in mice; settings: Swiss-Webster male mice, single subcutaneous injection, 100 ng/ml, 1 μg/ml, 10 μg/ml; 0, 1 and 4 hours; FIGS. 1 and 2
Procedure: The biological activity of bipyridine-calcitonin in vivo was measured as the ability of BP4,4 -CT to lower serum calcium in mice as compared to the action of salmon calcitonin. Six-week old Swiss-Webster male mice (12 to 18 grams) were given single, subcutaneous injections of BP4,4 -CT, salmon calcitonin or vehicle. Blood samples for serum calcium measurements were collected from orbital sinus punctures at timed intervals of 0, 1 and 4 hours after injection. Serum calcium was analyzed using a Dacos Excel Analyzer (Coulter Electronics Company, Hialeah, Fla.). The compounds were given at the following doses with eight mice randomly assigned to each of the following groups: […]

Molecule	% SCT EC50, Hamster CT receptor [1]	decrease of serum calcium levels (serum calcium in mice)
ZP-1: salmon calcitonin N-terminally modified with 2,2'-bipyridine-4,4'-dicarboxylic acid	73%	equally decreased serum calcium levels in a dose-dependent manner
CC(C)C[C@H](NC(=O)[C@H](CCCCN)NC(=O)CNC(=O)[C@H](CC(C)C)NC(=O)[C@@H](NC(=O)[C@@H]1CSSC[C@H](N)C(=O)N[C@@H](CO)C(=O)N[C@@H](CC(N)=O)C(=O)N[C@@H](CC(C)C)C(=O)N[C@@H](CO)C(=O)N[C@@H]([C@@H](C)O)C(=O)N1)C(C)C)C(=O)N[C@@H](CO)C(=O)N[C@@H](CCC(N)=O)C(=O)N[C@@H](CCC(=O)O)C(=O)N[C@@H](CC(C)C)C(=O)N[C@@H](Cc1c[nH]cn1)C(=O)N[C@@H](CCCCN)C(=O)N[C@@H](CC(C)C)C(=O)N[C@@H](CCC(N)=O)C(=O)N[C@H](C(=O)N[C@@H](Cc1ccc(O)cc1)C(=O)N1CCC[C@H]1C(=O)N[C@@H](CCCNC(=N)N)C(=O)N[C@H](C(=O)N[C@@H](CC(N)=O)C(=O)N[C@H](C(=O)NCC(=O)N[C@@H](CO)C(=O)NCC(=O)N[C@H](C(=O)N1CCC[C@H]1C(N)=O)[C@@H](C)O)[C@@H](C)O)[C@@H](C)O)[C@@H](C)O [salmon calcitonin, reference compound]		equally decreased serum calcium levels in a dose-dependent manner
